Measured values published in US20140142113A1 (priority 2012, published 2014).

Legend:
[1] = target: T1, rA1 adenosine receptor (Rattus norvegicus, UniProt P25099); experiment: Adenosine receptor selectivity, rA1; format: binding; conditions: read-out: rA1 Ki ± SEM
T1 sequence (P25099 1-326): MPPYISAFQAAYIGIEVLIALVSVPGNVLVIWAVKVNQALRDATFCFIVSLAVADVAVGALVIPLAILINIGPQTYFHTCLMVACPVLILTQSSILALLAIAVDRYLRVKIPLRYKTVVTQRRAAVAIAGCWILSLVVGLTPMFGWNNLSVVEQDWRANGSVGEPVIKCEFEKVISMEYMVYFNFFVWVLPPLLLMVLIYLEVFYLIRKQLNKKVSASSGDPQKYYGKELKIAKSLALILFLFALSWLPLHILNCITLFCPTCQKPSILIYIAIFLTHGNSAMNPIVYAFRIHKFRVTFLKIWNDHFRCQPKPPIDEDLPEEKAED
Source text: (§1) The selectivity of these substances at various adenosine receptors is illustrated as follows: […]

[2] = target: rA2A adenosine receptor (Rattus norvegicus, UniProt P30543); experiment: Adenosine receptor selectivity, rA2A; format: binding; conditions: read-out: rA2A Ki ± SEM
rA2A adenosine receptor, sequence (P30543 whole entry): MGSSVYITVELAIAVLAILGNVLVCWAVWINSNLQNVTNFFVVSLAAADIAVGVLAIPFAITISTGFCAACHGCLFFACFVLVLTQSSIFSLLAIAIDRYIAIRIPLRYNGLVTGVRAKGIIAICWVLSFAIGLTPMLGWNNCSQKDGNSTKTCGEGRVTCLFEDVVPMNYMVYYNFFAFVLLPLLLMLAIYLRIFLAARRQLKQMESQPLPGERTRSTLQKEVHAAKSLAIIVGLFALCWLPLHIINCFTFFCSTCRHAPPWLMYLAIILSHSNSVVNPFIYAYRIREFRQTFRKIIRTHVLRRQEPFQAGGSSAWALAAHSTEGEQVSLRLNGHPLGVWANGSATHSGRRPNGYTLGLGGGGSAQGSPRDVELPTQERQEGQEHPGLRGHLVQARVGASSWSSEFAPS
Source text: as §1

[3] = target: T2, hA2B adenosine receptor (Homo sapiens, UniProt P29275); experiment: Adenosine receptor selectivity, hA2B; format: binding; conditions: read-out: hA2B IC50 ± SEM
T2 sequence (P29275 1-332): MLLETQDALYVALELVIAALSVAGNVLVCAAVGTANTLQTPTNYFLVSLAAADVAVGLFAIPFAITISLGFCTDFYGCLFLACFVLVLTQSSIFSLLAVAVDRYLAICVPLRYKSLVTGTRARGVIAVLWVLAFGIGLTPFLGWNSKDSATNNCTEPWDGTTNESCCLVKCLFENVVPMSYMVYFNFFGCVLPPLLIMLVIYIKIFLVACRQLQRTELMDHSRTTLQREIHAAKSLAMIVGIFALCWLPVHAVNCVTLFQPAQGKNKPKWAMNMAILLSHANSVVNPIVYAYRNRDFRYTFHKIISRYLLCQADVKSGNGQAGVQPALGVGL
Source text: as §1

[4] = target: T3, hA3 adenosine receptor (Homo sapiens, UniProt P0DMS8); experiment: Adenosine receptor selectivity, hA3; format: binding; conditions: read-out: hA3 Ki ± SEM
T3 sequence (P0DMS8 1-318): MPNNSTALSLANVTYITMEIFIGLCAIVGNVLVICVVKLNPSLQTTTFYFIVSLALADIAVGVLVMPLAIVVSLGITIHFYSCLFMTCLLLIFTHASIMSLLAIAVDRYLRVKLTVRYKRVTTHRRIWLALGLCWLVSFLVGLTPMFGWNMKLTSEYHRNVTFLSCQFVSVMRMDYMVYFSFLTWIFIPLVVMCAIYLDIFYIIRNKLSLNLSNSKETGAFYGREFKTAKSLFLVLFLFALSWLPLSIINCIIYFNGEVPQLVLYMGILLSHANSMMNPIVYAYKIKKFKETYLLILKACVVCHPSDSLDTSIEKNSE
Source text: as §1

[5] = system: experimental autoimmune encephalomyelitis; experiment: Experimental autoimmune encephalomyelitis (EAE) in mice; format: in vivo; conditions: C57B/6 mice, 15 mg/kg i.p. once daily from EAE induction
Experimental: Control mice were treated with PEG/saline (triangles). […] Data are the mean plotted with the standard error of the mean.
EAE is a widely used animal model for multiple sclerosis (MS).
EAE was induced in C57B/6 mice by subcutaneous immunization with 100 ug/mouse myelin oligodendrocyte glycoprotein (MOG) peptide 35-55 emulsified in compete Freund's adjuvant (CFA) containing 2 mg/ml heat-killed mycobacterium tuberculosis H37Ra (Hooke Laboratories). As part of the induction protocol, mice were also injected intraperitoneally on the day of immunization and 48 hours later with 0.1 ml of 4 [mu]g/mL Bordetella pertusis toxin. Severity of EAE was determined daily based on a standard scoring system: 1, tail weakness or paralysis; 2, hind leg weakness; 3, hind limb paralysis; 4, forelimb weakness; and 5, moribund animals or death.

[6] = Pharmacokinetics of Compound 1 in mice, oral or intravenous; format: in vivo; conditions: C57BLK6 mice
Experimental: The cellulose formulation was administered to C57BLK6 mice orally. The serum suspension/solution was administered intravenously. […] The results are recorded in FIG. 5.

[7] = system: collagen-induced arthritis; experiment: Collagen induced arthritis (CIA) in mice; format: in vivo; conditions: DBA/1 mice, 30 mg/kg i.p. once daily
Experimental: Control mice were treated with saline (circles). Data are the mean arthritis paw thickness, assessed using a calliper in the days following primary immunization and boost.
After the end of treatment, the inhibitory effect was maintained for a period of 2-3 days after which signs began to re-emerge.
Treatment of rheumatoid arthritis using Collagen Induced Arthritis as a model Collagen-induced arthritis studies. CIA in DBA/1 mice was induced by injecting DBA/1 mice with bovine type Il collagen (CII) emulsified in CFA1 followed by boosting 21 days later with CII emulsified in incomplete Freund's adjuvant (IFA). […] 30 mg/kg was delivered by i.p. injection once daily, starting following the development of clinical arthritis in treatment experiments. Animals were monitored daily following boost of arthritis, following the emergence of clear signs of disease observed on two consecutive days, animals were allocated randomly to treatment groups. Signs monitored included weight loss, paw thickness, and observed clinical score. Scoring is according to the presence of inflamed joints: 1 point for an inflamed digit, 1 point for a inflamed metatarsus, and 1 point for an inflamed joint above the metatarsus.

SMILES	Ki [1] [nM]	Ki [2] [nM]	IC50 [3] [nM]	Ki [4] [nM]	further results
CCCn1c(=O)[nH]c2nc(-c3ccc(S(=O)(=O)N4CCN(Cc5cccc(Cl)c5)CC4)cc3)[nH]c2c1=O [Compound 4]	178 ± 38	799 ± 358	2 ± 0.1		
CCCn1c(=O)[nH]c2nc(-c3ccc(S(=O)(=O)N4CCN(Cc5ccc(Cl)cc5)CC4)cc3)[nH]c2c1=O [Propyl-/p-Chlorbenzyl-]	386 ± 98	1730 ± 790	4 ± 1		
CCCn1c(=O)[nH]c2nc(-c3ccc(S(=O)(=O)N4CCN(c5ccc(Cl)cc5)CC4)cc3)[nH]c2c1=O [Compound 1]			1 ± 0.4	> 10000	onset of EAE compared to control mice ([5]; 15 mg/kg): delayed onset such that there were no signs of EAE; onset of EAE compared to control mice ([5]; listed as compound 1, 15 mg/kg): a delay in the onset of EAE; detectability in blood by route ([6]; oral or intravenous route): detectable only via injection; oral availability ([6]; oral, 1% methyl cellulose in water, 0.2% Tween 80): not orally available; half-life ([6]; whole blood, iv, i.v. application in mouse serum, read-out: terminal half life): 1 to 2 h; effect on existing inflammation in CIA ([7]; established arthritis): able to reduce an existing inflammation to a normal state; severity of CIA (paw swelling, erythema, joint rigidity; mean visual arthritis score) ([7]; started after development of clinical arthritis): significant reductions in the severity of CIA
CCCn1c(=O)[nH]c2nc(-c3ccc(S(=O)(=O)N4CCN(Cc5ccc(OC)cc5)CC4)cc3)[nH]c2c1=O [Propyl-/p-Methoxybenzyl-]	84 ± 19	1020 ± 561	16 ± 6		
CCn1c(=O)[nH]c2nc(-c3ccc(S(=O)(=O)N4CCN(c5ccccc5)CC4)cc3)[nH]c2c1=O [Ethyl-/Phenyl-]	142 ± 6	514 ± 41	4 ± 3	> 10000	
CCn1c(=O)[nH]c2nc(-c3ccc(S(=O)(=O)N4CCN(Cc5cccc(C(F)(F)F)c5)CC4)cc3)[nH]c2c1=O [Compound 3]	509 ± 155	499 ± 129	2 ± 1		
CCCn1c(=O)[nH]c2nc(-c3ccc(S(=O)(=O)N4CCN(Cc5cccc(C(F)(F)F)c5)CC4)cc3)[nH]c2c1=O [Propyl-/m-Trifluormethylbenzyl-]	273 ± 47	1700 ± 217	4 ± 0.2		
CCCn1c(=O)[nH]c2nc(-c3ccc(S(=O)(=O)N4CCN(Cc5ccc6c(c5)OCO6)CC4)cc3)[nH]c2c1=O [Propyl-/3,4-(Methylen-dioxy)benzyl-]	79 ± 5	590 ± 29	24 ± 10	4150	
CCCn1c(=O)[nH]c2nc(-c3ccc(S(=O)(=O)N4CCN(Cc5cccc(F)c5)CC4)cc3)[nH]c2c1=O [Compound 5]	111 ± 43	782 ± 236	3 ± 0.2		
CCn1c(=O)[nH]c2nc(-c3ccc(S(=O)(=O)N4CCN(Cc5ccc(OC)cc5)CC4)cc3)[nH]c2c1=O [Ethyl-/p-Methoxybenzyl-]	129 ± 41	630 ± 305	5 ± 1	< 10000	
CCCn1c(=O)[nH]c2nc(-c3ccc(S(=O)(=O)N4CCN(CCc5ccccc5)CC4)cc3)[nH]c2c1=O [Propyl-/2-(Phenyl)ethyl-]		154 ± 44.9	11 ± 3	< 10000	
CCCn1c(=O)[nH]c2nc(-c3ccc(S(=O)(=O)N4CCN(Cc5ccc(C(F)(F)F)cc5)CC4)cc3)[nH]c2c1=O [Compound 2]	463 ± 122	1540 ± 271	2 ± 1		
CCn1c(=O)[nH]c2nc(-c3ccc(S(=O)(=O)N4CCN(Cc5ccc6c(c5)OCO6)CC4)cc3)[nH]c2c1=O [Ethyl-/3,4-(Methylen-dioxy)benzyl-]	54 ± 5	332 ± 129	5 ± 2	< 10000	
CCCn1c(=O)[nH]c2nc(-c3ccc(S(=O)(=O)N4CCN(Cc5ccccc5)CC4)cc3)[nH]c2c1=O [Propyl-/Benzyl-]	151 ± 38	848 ± 433	10 ± 2	> 10000	
